#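 A five-concentration, 48-hour dose response in 96-well plates underlies each endpoint, interpolated linearly between surrounding concentrations. Definition used: TGI = concentration required for complete inhibition of growth.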
# How the values were obtained:
# Test in all cases: NCI tumour cell line growth inhibition, 48 h
# [1] = system: EKVX NSCLC
# [2] = system: HT29 colon
# [3] = system: K-562 leukemia
# [4] = system: UACC-257 melanoma
# [5] = system: ACHN renal
# [6] = system: RXF 393 renal
# [7] = system: NCI/ADR-RES ovarian
# [8] = system: HL-60(TB) leukemia
# [9] = system: SK-MEL-2 melanoma
# [10] = system: NCI-H522 lung
# [11] = system: NCI-H460 lung
# [12] = system: SN12C renal
# [13] = system: HOP-92 NSCLC
# [14] = system: NCI-H23 lung
# [15] = system: OVCAR-3 ovarian
# [16] = system: SNB-19 CNS
# [17] = system: SR leukemia
# [18] = system: MALME-3M melanoma
# [19] = system: KM12 colon
# [20] = system: MDA-N
# [21] = system: SNB-75 CNS
# [22] = system: PC-3 prostate
# [23] = system: BT-549 breast
# [24] = system: IGROV1 ovarian
# [25] = system: SF-295 CNS
# [26] = system: HOP-62 NSCLC
# [27] = system: T-47D breast
# [28] = system: SK-MEL-28 melanoma
# [29] = system: MDA-MB-231 breast
# [30] = system: DU-145 prostate
# [31] = system: SF-268 CNS
# [32] = system: OVCAR-5 ovarian
# [33] = system: SK-MEL-5 melanoma
# [34] = system: HS 578T breast
# [35] = system: MOLT-4 leukemia
# [36] = system: CAKI-1 renal
# [37] = system: RPMI-8226 leukemia
# [38] = system: COLO 205 colon
# [39] = system: HCT-15 colon
# [40] = system: UO-31 renal
# [41] = system: OVCAR-4 ovarian
# [42] = system: 786-0 renal
# [43] = system: A549 NSCLC
# [44] = system: SK-OV-3 ovarian
# [45] = system: TK-10 renal
# [46] = system: OVCAR-8 ovarian
# [47] = system: LOX IMVI melanoma
# [48] = system: HCT-116 colon
# [49] = system: CCRF-CEM leukemia
# [50] = system: NCI-H226 lung
# [51] = system: M14 melanoma
# [52] = system: A498 renal
# [53] = system: SW-620 colon
# [54] = system: U251 CNS
# [55] = system: MDA-MB-435
# [56] = system: SF-539 CNS
# [57] = system: MCF7 breast
# [58] = system: HCC-2998 colon
# [59] = system: UACC-62 melanoma
smiles,measurement,setting,value
Clc1ccc(OCc2nnc3sc(-c4ccc(-c5ccc(Cl)cc5Cl)o4)nn23)cc1,TGI,[1],> 100 µM
same,TGI,[2],> 100 µM
same,TGI,[3],> 100 µM
same,TGI,[4],> 100 µM
same,TGI,[5],> 100 µM
same,TGI,[6],54 µM
same,TGI,[7],> 100 µM
same,TGI,[8],> 100 µM
same,TGI,[9],> 100 µM
same,TGI,[10],> 100 µM
same,TGI,[11],> 100 µM
same,TGI,[12],> 100 µM
same,TGI,[13],> 100 µM
same,TGI,[14],> 100 µM
same,TGI,[15],> 100 µM
same,TGI,[16],> 100 µM
same,TGI,[17],> 100 µM
same,TGI,[18],> 100 µM
same,TGI,[19],> 100 µM
same,TGI,[20],> 100 µM
same,TGI,[21],31.3 µM
same,TGI,[22],> 100 µM
same,TGI,[23],> 100 µM
same,TGI,[24],> 100 µM
same,TGI,[25],> 100 µM
same,TGI,[26],> 100 µM
same,TGI,[27],> 100 µM
same,TGI,[28],> 100 µM
same,TGI,[29],> 100 µM
same,TGI,[30],> 100 µM
same,TGI,[31],> 100 µM
same,TGI,[32],> 100 µM
same,TGI,[33],> 100 µM
same,TGI,[34],> 100 µM
same,TGI,[35],> 100 µM
same,TGI,[36],> 100 µM
same,TGI,[37],> 100 µM
same,TGI,[38],> 100 µM
same,TGI,[39],> 100 µM
same,TGI,[40],> 100 µM
same,TGI,[41],> 100 µM
same,TGI,[42],> 100 µM
same,TGI,[43],> 100 µM
same,TGI,[44],> 100 µM
same,TGI,[45],> 100 µM
same,TGI,[46],> 100 µM
same,TGI,[47],> 100 µM
same,TGI,[48],> 100 µM
same,TGI,[49],> 100 µM
same,TGI,[50],> 100 µM
same,TGI,[51],> 100 µM
same,TGI,[52],> 100 µM
same,TGI,[53],> 100 µM
same,TGI,[54],> 100 µM
same,TGI,[55],> 100 µM
O=S1(=O)OCCOS(=O)(=O)C1Cc1cccc2ccccc12,TGI,[1],80.3 µM
same,TGI,[2],71.4 µM
same,TGI,[3],38.2 µM
same,TGI,[4],34.2 µM
same,TGI,[5],99.6 µM
same,TGI,[6],12 µM
same,TGI,[7],54.8 µM
same,TGI,[8],29.9 µM
same,TGI,[9],> 100 µM
same,TGI,[10],47.8 µM
same,TGI,[11],35.4 µM
same,TGI,[12],62.2 µM
same,TGI,[13],56.6 µM
same,TGI,[14],79.5 µM
same,TGI,[16],87.3 µM
same,TGI,[17],64.9 µM
same,TGI,[18],31.2 µM
same,TGI,[20],59.3 µM
same,TGI,[21],> 100 µM
same,TGI,[22],> 100 µM
same,TGI,[24],28.6 µM
same,TGI,[25],> 100 µM
same,TGI,[26],49.1 µM
same,TGI,[27],> 100 µM
same,TGI,[28],21.5 µM
same,TGI,[29],46.6 µM
same,TGI,[30],31.1 µM
same,TGI,[31],57.8 µM
same,TGI,[32],60.9 µM
same,TGI,[33],28.2 µM
same,TGI,[34],84.9 µM
same,TGI,[56],39.9 µM
same,TGI,[35],65.9 µM
same,TGI,[36],> 100 µM
same,TGI,[37],85.3 µM
same,TGI,[38],29.2 µM
same,TGI,[39],87.1 µM
same,TGI,[40],48.8 µM
same,TGI,[41],47 µM
same,TGI,[42],54.8 µM
same,TGI,[43],> 100 µM
same,TGI,[57],37.6 µM
same,TGI,[44],70.7 µM
same,TGI,[58],43 µM
same,TGI,[45],> 100 µM
same,TGI,[59],57.2 µM
same,TGI,[46],34.7 µM
same,TGI,[47],55.4 µM
same,TGI,[48],48.3 µM
same,TGI,[49],40.5 µM
same,TGI,[50],36.3 µM
same,TGI,[51],54.9 µM
same,TGI,[52],28.9 µM
same,TGI,[53],> 100 µM
same,TGI,[54],40.7 µM
same,TGI,[55],32 µM
CC(=O)OCC1OC(O[C@@H]2C[C@H]3C(C)(C)[C@@H](OC(C)=O)CC[C@]3(C)[C@H]3CC[C@]45C[C@]4(CC[C@H]5[C@@H](C)C[C@@H](O)[C@H](O)C(C)(C)F)[C@@]32C)C(O)C(O)C1O (stereo partly specified),TGI,[1],3.21 µM
same,TGI,[2],3.05 µM
same,TGI,[4],> 100 µM
same,TGI,[5],> 100 µM
same,TGI,[6],> 100 µM
same,TGI,[7],29.6 µM
same,TGI,[8],2.75 µM
same,TGI,[10],4.82 µM
same,TGI,[11],> 100 µM
same,TGI,[12],3.23 µM
same,TGI,[13],3.71 µM
same,TGI,[14],4.56 µM
same,TGI,[15],> 100 µM
same,TGI,[16],3.1 µM
same,TGI,[18],3.48 µM
same,TGI,[19],> 100 µM
same,TGI,[20],3.09 µM
same,TGI,[22],91.5 µM
same,TGI,[23],3.4 µM
same,TGI,[24],4.45 µM
same,TGI,[25],> 100 µM
same,TGI,[26],> 100 µM
same,TGI,[27],> 100 µM
same,TGI,[28],3.3 µM
same,TGI,[29],48.2 µM
same,TGI,[30],> 100 µM
same,TGI,[31],3.05 µM
same,TGI,[32],2.81 µM
same,TGI,[33],3.2 µM
same,TGI,[34],5.85 µM
same,TGI,[56],3.51 µM
same,TGI,[35],4.28 µM
same,TGI,[36],> 100 µM
same,TGI,[37],4.24 µM
same,TGI,[38],3.38 µM
same,TGI,[39],5.94 µM
same,TGI,[41],> 100 µM
same,TGI,[42],3.24 µM
same,TGI,[43],3.12 µM
same,TGI,[57],> 100 µM
same,TGI,[44],> 100 µM
same,TGI,[58],> 100 µM
same,TGI,[45],> 100 µM
same,TGI,[59],> 100 µM
same,TGI,[46],6.1 µM
same,TGI,[47],4.33 µM
same,TGI,[48],2.95 µM
same,TGI,[49],3.57 µM
same,TGI,[51],3.28 µM
same,TGI,[52],76.5 µM
same,TGI,[53],4.85 µM
same,TGI,[54],41.1 µM
same,TGI,[55],31.6 µM
COC(=O)C1=C(C)NC(C)=C(C(=O)OC)C1c1ccc(N=O)cc1,TGI,[1],34.1 µM
same,TGI,[2],40.8 µM
same,TGI,[3],> 100 µM
same,TGI,[4],23.2 µM
same,TGI,[5],26.7 µM
same,TGI,[6],23.5 µM
same,TGI,[7],50.9 µM
same,TGI,[8],> 100 µM
same,TGI,[9],28.2 µM
same,TGI,[10],6.61 µM
same,TGI,[11],41.9 µM
same,TGI,[12],35.8 µM
same,TGI,[13],8.95 µM
same,TGI,[14],38.9 µM
same,TGI,[15],26.9 µM
same,TGI,[16],> 81.2 µM
same,TGI,[18],24.4 µM
same,TGI,[19],33.4 µM
same,TGI,[20],16.6 µM
same,TGI,[21],26.1 µM
same,TGI,[22],29.3 µM
same,TGI,[23],23 µM
same,TGI,[24],30.1 µM
same,TGI,[25],> 61.3 µM
same,TGI,[26],> 55.3 µM
same,TGI,[27],44.7 µM
same,TGI,[28],33.4 µM
same,TGI,[29],25.2 µM
same,TGI,[30],19.2 µM
same,TGI,[31],43.9 µM
same,TGI,[32],32.9 µM
same,TGI,[33],30.9 µM
same,TGI,[34],40.8 µM
same,TGI,[56],32 µM
same,TGI,[35],> 100 µM
same,TGI,[36],27.9 µM
same,TGI,[37],5.02 µM
same,TGI,[38],24.5 µM
same,TGI,[39],23.9 µM
same,TGI,[40],26.3 µM
same,TGI,[41],14.2 µM
same,TGI,[42],27.7 µM
same,TGI,[43],> 60.3 µM
same,TGI,[57],37 µM
same,TGI,[44],25.5 µM
same,TGI,[58],33.7 µM
same,TGI,[45],29.2 µM
same,TGI,[59],30 µM
same,TGI,[46],21.7 µM
same,TGI,[47],11.6 µM
same,TGI,[48],36.8 µM
same,TGI,[49],> 100 µM
same,TGI,[50],39.3 µM
same,TGI,[51],23.3 µM
same,TGI,[53],12.9 µM
same,TGI,[54],32.2 µM
same,TGI,[55],32.6 µM

# Source: PubChem BioAssay (NCI)
